Results published in US6645529B2, “Instant granules and process for their formulation” (Dr. Gergely & Co., priority 2000, dated 2003).

Assays:
bulk density = assay type: physicochemical; settings: for bulk density (g/100 ml): Table 1, preferred carrier materials; for Bulk density in g/100 ml: Table 3, carrier materials
[1] = dissolving times of different carrier materials; assay type: physicochemical; settings: 10 g in 100 ml water of 17° C., stirred at 500 rpm, visual
Description: Testing conditions: 10 g of each carrier material was added to 100 ml water of 17° C. in a 400 ml beaker and stirred at 500 rpm by a magnetic stirrer. Dissolution was determined visually.

[2] = listed as mannitol (fine granulated)

Row | SMILES | bulk density (g/100 ml) (bulk density) | Bulk density in g/100 ml (bulk density) [g/100 ml] | Dissolving time [1] [s] | Bulk density in g/100 ml (bulk density; [2]) [g/100 ml] | Dissolving time [1, 2] [s]
1 | OC[C@@H](O)[C@@H](O[C@H]1O[C@H](CO)[C@@H](O)[C@H](O)[C@H]1O)[C@H](O)[C@@H](O)CO [hydrogenated maltose] | 90 | 90 | 200 |  | 
2 | OC[C@H]1O[C@@](CO)(O[C@H]2O[C@H](CO)[C@@H](O)[C@H](O)[C@H]2O)[C@@H](O)[C@@H]1O [instant sugar] | 50 | 45 | 15 |  | 
3 | OC[C@H]1O[C@@H](O[C@H]2[C@H](O)[C@@H](O)C(O)O[C@@H]2CO)[C@H](O)[C@@H](O)[C@H]1O (stereo partly drawn) [lactose] | 69 | 69 | 120 |  | 
4 | OC[C@@H](O)[C@@H](O)[C@H](O)[C@H](O)CO [mannitol (spray dried), mannitol] | 45 | 45 | 55 |  | 
5 | OC[C@@H](O)[C@@H](O)[C@H](O)[C@H](O)CO [mannitol] | 63 |  |  | 62 | 95
6 | O.O=P([O-])(O)O.O=P([O-])(O)O.[Ca+2] [monocalcium phosphate.H2O] | 82 |  |  |  | 
7 | OC[C@H]1O[C@@](CO)(O[C@H]2O[C@H](CO)[C@@H](O)[C@H](O)[C@H]2O)[C@@H](O)[C@@H]1O [saccharose (coarse grain), saccharose] | 88 |  |  |  | 
8 | OC[C@H]1O[C@@](CO)(O[C@H]2O[C@H](CO)[C@@H](O)[C@H](O)[C@H]2O)[C@@H](O)[C@@H]1O [saccharose (fine grain), saccharose] | 81 |  |  |  | 
9 | OC[C@@H](O)[C@@H](O)[C@H](O)[C@@H](O)CO [sorbitol (spray dried), sorbitol] | 45 | 45 | 50 |  | 
10 | OC[C@@H](O)[C@@H](O)[C@H](O)[C@@H](O)CO [sorbitol] | 58 | 58 | 90 |  | 
11 | O.O.O=C([O-])CC(O)(CC(=O)[O-])C(=O)[O-].[Na+].[Na+].[Na+] [trisodiumcitrate.2H2O] | 95 | 95 | 85 |  | 
